# In US7741245B2, “Method for treating plants or plant parts” (Rohm and Haas Company, priority 2004, dated 2010):
# System: Patio variety tomato seedlings
# Test: Tomato Epinasty Test
# Assay type: in vivo
# Settings: 1000 ppm v/v OCPO in air of sealed chamber; ethylene 10 ppm v/v injected four hours later; scored sixteen hours later
# Description: The biological activity of OCPO was assessed with the Tomato Epinasty Test. Epinasty is downward bending of leaves. The test was performed as follows. Test plants are Patio variety tomato seedlings planted two plants per three inch square plastic pot. Volatile gas treatment entailed placing two pots of Patio variety tomatoes into a polystyrene 4.8 L volume treatment chamber along with one-half (upper or lower section) of a 50×9 mm plastic Petri dish containing a Gelman filter pad. OCPO, dissolved in 1.0 ml acetone, was pipetted onto the filter pad and the chamber was immediately sealed. The amount of OCPO was calculated to give concentration of 1000 ppm v/v of OCPO in the air of the sealed chamber. Four hours later ethylene gas was injected into the sealed chamber in an amount to give concentration of ethylene of 10 ppm v/v final concentration in the sealed chamber. Sixteen hours later the chambers were opened in an exhaust hood, allowed to air, and the plants scored visually for the degree of protection against ethylene-induced epinasty conferred by the experimental compound when compared to untreated controls on a scale of 0 to 10. A rating of 10 means complete protection. A rating of 0 means no protection from the effects of ethylene.
structure (smiles),measurement,value
"CCCCCCCCc1cc1=O [OCPO, 1-octylcycloprop-1-en-2-one]","protection against ethylene-induced epinasty, visual rating on a scale of 0 to 10 (10 = complete protection, 0 = no protection)",7
